Measured values reported in the supplement of paper PMC10307832.

Legend:
Experiment in all cases: relative viability (nuclei count vs DMSO), 5 days (fraction); higher = more cells survive
[1] = compound: COc1cc2nc(N3CCCN(C)CC3)nc(NC3CCN(Cc4ccccc4)CC3)c2cc1OC + CC(C)C[C@H](NC(=O)[C@H](Cc1ccccc1)NC(=O)c1cnccn1)B(O)O [Bortezomib] (partner 0.002 µM)
Outline: (§1)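 Five library-drug doses in √10 steps were combined with a fixed anchor-drug dose, or a single drug was given alone, by pin tool to lung cancer cell lines in 1536-well plates the day after seeding. Nuclei were stained and counted after 5 days. Relative viability is the nuclei count in treated wells over that in vehicle wells, taken as the median of duplicate plates.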

AZD6482 + Foretinib = compound: Cc1cc([C@@H](C)Nc2ccccc2C(=O)O)c2nc(N3CCOCC3)cc(=O)n2c1 [AZD6482] + COc1cc2c(Oc3ccc(NC(=O)C4(C(=O)Nc5ccc(F)cc5)CC4)cc3F)ccnc2cc1OCCCN1CCOCC1 [Foretinib] (partner 0.25 µM)
Outline: as §1

[2] = compound: COc1cc2nc(N3CCCN(C)CC3)nc(NC3CCN(Cc4ccccc4)CC3)c2cc1OC + Cc1nc(Nc2ncc(C(=O)Nc3c(C)cccc3Cl)s2)cc(N2CCN(CCO)CC2)n1 [Dasatinib] (partner 0.075 µM)
Outline: as §1

AZD6482 + Trametinib = compound: Cc1cc([C@@H](C)Nc2ccccc2C(=O)O)c2nc(N3CCOCC3)cc(=O)n2c1 [AZD6482] + CC(=O)Nc1cccc(-n2c(=O)n(C3CC3)c(=O)c3c(Nc4ccc(I)cc4F)n(C)c(=O)c(C)c32)c1 [Trametinib] (partner 0.02 µM)
Outline: as §1

Row | Cell Line | relative viability ([1]; first compound 0.2 µM) | relative viability ([1]; first compound 0.6325 µM) | relative viability ([1]; first compound 2 µM) | relative viability ([1]; first compound 6.325 µM) | relative viability (AZD6482 + Foretinib; first compound 0.08 µM) | relative viability (AZD6482 + Foretinib; first compound 0.253 µM) | relative viability (AZD6482 + Foretinib; first compound 0.8 µM) | relative viability (AZD6482 + Foretinib; first compound 2.53 µM) | relative viability (AZD6482 + Foretinib; first compound 8 µM) | relative viability ([2]; first compound 0.2 µM) | relative viability ([2]; first compound 0.6325 µM) | relative viability ([2]; first compound 2 µM) | relative viability ([2]; first compound 6.325 µM) | relative viability (AZD6482 + Trametinib; first compound 0.08 µM) | relative viability (AZD6482 + Trametinib; first compound 0.253 µM) | relative viability (AZD6482 + Trametinib; first compound 0.8 µM) | relative viability (AZD6482 + Trametinib; first compound 2.53 µM) | relative viability (AZD6482 + Trametinib; first compound 8 µM)
1 | 201T | 1.13 | 1.14 | 1.17 | 1.07 | 1.07 | 1.01 | 1.11 | 0.734 | 1.08 | 0.573 | 0.495 | 0.549 | 0.557 | 0.694 | 0.698 | 0.704 | 0.653 | 0.708
2 | NCI-H460 | 1.04 | 1.05 | 1.14 | 0.864 | 1.03 | 0.977 | 1 | 0.828 | 0.719 | 0.532 | 0.534 | 0.415 | 0.43 | 0.138 | 0.106 | 0.146 | 0.0746 | 0.126
3 | NCI-H661 | 0.813 | 0.793 | 0.935 | 0.868 | 0.962 | 1.06 | 1.14 | 0.723 | 0.815 | 0.957 | 0.955 | 0.966 | 0.83 | 0.615 | 0.555 | 0.61 | 0.428 | 0.387
4 | HCC-15 | 1.03 | 1.02 | 1.12 | 0.881 | 0.989 | 0.882 | 1.01 | 0.853 | 0.988 | 0.632 | 0.706 | 0.654 | 0.44 | 0.356 | 0.348 | 0.33 | 0.271 | 0.273
5 | LCLC-103H | 1.18 | 1.09 | 1.31 | 1.01 | 0.603 | 0.55 | 0.56 | 0.379 | 0.33 | 0.394 | 0.344 | 0.532 | 0.479 | 0.661 | 0.607 | 0.649 | 0.547 | 0.496
6 | NCI-H441 | 0.454 |  | 0.519 | 0.36 | 0.852 | 0.806 | 1.21 |  | 0.87 | 0.602 | 0.616 | 0.532 | 0.599 | 0.422 | 0.435 | 0.39 |  | 0.312
7 | EPLC-272H | 0.897 | 0.793 | 0.918 | 0.658 | 0.621 | 0.426 | 0.506 | 0.378 | 0.256 | 0.384 | 0.411 | 0.453 | 0.37 | 0.251 | 0.213 | 0.27 | 0.234 | 0.194
